Source: paper PMC12624906, “Discovery of benzyl carbamate inhibitors of coronavirus M^pro enzymes from a legacy collection of cysteine protease inhibitors” (Journal of Enzyme Inhibition and Medicinal Chemistry, 2025)
Several values for one entry are separate records, joined by “and”; a condition that tells them apart may be missing. Equal values may be shown once. Read-outs that look alike come from different tables or passages of the source.

Tests used:
[1] = molecular target: MERS-CoV M^pro (Middle East respiratory syndrome-related coronavirus, UniProt K9N7C7); experiment: biochemical; assay type: biochemical; conditions: for IC50: n = 6
MERS-CoV M^pro, sequence (K9N7C7 3248-3553 limits assumed): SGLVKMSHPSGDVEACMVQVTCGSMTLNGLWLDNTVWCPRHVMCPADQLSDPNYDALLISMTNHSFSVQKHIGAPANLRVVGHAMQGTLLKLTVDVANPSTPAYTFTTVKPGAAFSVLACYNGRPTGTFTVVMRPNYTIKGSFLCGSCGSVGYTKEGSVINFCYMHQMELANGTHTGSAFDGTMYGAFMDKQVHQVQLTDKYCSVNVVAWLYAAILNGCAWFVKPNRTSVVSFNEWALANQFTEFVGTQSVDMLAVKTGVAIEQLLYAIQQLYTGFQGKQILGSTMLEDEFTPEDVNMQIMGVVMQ

[2] = molecular target: T1, SARS-CoV-2 M^pro (Severe acute respiratory syndrome coronavirus 2, UniProt P0DTD1); assay type: biochemical; conditions: pre-incubated 30 min at 10-fold IC50 with 100× enzyme, diluted 100-fold to 0.1-fold IC50; monitored 2 h
[3] = molecular target: SARS-CoV-2 PL^pro (Severe acute respiratory syndrome coronavirus 2, UniProt P0DTD1); experiment: biochemical; conditions: 15-min pre-incubation, one assay in triplicate (n = 3), mean ± SE
[4] = molecular target: SARS-CoV M^pro (Severe acute respiratory syndrome coronavirus, UniProt P0C6X7); experiment: biochemical; assay type: biochemical; conditions: for IC50: n = 6
[5] = molecular target: T1, SARS-CoV-2 M^pro; experiment: biochemical; assay type: biochemical; conditions: for fold decrease in IC50 with 15-min pre-incubation vs without: SARS-CoV-2 M^pro, 15-min vs 0-min pre-incubation
[6] = in vitro; conditions: green monkey
[7] = in vitro; conditions: mouse
[8] = molecular target: T1, SARS-CoV-2 M^pro; experiment: biochemical; conditions: compound at 10 μM, 15-min pre-incubation, relative to DMSO control, mean ± SE; for % inhibition of SARS-CoV-2 M^pro activity: 10 µM
[9] = molecular target: T1, SARS-CoV-2 M^pro; experiment: biochemical; assay type: biochemical; conditions: for IC50: 15-min pre-incubation, two independent assays in triplicate (n = 6)
[10] = molecular target: T2, human cathepsin L (hCatL) (Homo sapiens, UniProt P07711); experiment: hCatL inhibition assay (Z-Phe-Arg-AMC); assay type: biochemical; conditions: 15-min pre-incubation; pH 5.5; n = 6
T2 construct: purchased R&D Systems 952-CY-010
T2 sequence (P07711 114-333): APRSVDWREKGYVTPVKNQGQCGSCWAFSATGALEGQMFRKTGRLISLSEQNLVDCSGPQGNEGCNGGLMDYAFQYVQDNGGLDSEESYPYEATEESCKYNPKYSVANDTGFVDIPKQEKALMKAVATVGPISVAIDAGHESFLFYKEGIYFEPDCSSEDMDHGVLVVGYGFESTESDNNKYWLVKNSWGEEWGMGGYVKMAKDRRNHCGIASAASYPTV

[11] = molecular target: T2, human cathepsin L (hCatL); design: method as in PMID 37435731; conditions: E-64 data reported previously; cited from earlier work
[12] = tested on: Vero cells; design: method as in PMID 38194508; conditions: ribavirin data reported previously; cited from earlier work
[13] = tested on: L929 cells; design: method as in PMID 39072124; conditions: ribavirin data reported previously; cited from earlier work
[14] = 15-min pre-incubation before substrate, value per independent assay (Figure 3, black), read-out: IC50 SARS-CoV-2 M^pro, 15-min pre-incubation
[15] = 30-min pre-incubation before substrate, value per independent assay (Figure 3, violet), read-out: IC50 SARS-CoV-2 M^pro, 30-min pre-incubation
[16] = no pre-incubation before substrate, value per independent assay (Figure 3, teal), read-out: IC50 SARS-CoV-2 M^pro, 0-min pre-incubation

COC(=O)/C=C/C(=O)[C@@H](C)NC(=O)[C@H](Cc1ccccc1)NC(=O)OCc1ccccc1 [Compound 1a]
IC50 [1]: 3790 ± 640 nM | inhibition after rapid dilution (reversibility) [2]: reversible inhibition | inhibition at 10 µM [3]: 0% | IC50 [4]: 699 ± 12.5 nM | IC50 [5, 14]: 433 nM and 397 nM | IC50 [5, 15]: 249 nM and 301 nM | fold decrease in IC50 with 15-min pre-incubation vs without [5]: ~2 fold | IC50 [5, 16]: 1020 nM and 1160 nM | CC50 at 48 h [6]: 17200 ± 500 nM | CC50 at 48 h [7]: 73500 ± 4340 nM | inhibition at 10 µM [8]: > 95% | % inhibition of SARS-CoV-2 M^pro activity [8]: 96.75 ± 1.04% | IC50 [9]: 415 ± 18 nM | IC50 [10]: 319 ± 1 nM

O=C(NC(CCc1ccccc1)C(O)c1cc1=O)C(Cc1ccccc1)NC(=O)N1CCOCC1 (centres unmarked) [Compound 2a]
IC50 [1]: > 10000 nM | inhibition at 10 µM [3]: 5.2 ± 1.23% | IC50 [4]: > 10000 nM | inhibition at 10 µM [8]: 54 ± 1.34% | IC50 [9]: 8120 ± 40 nM | IC50 [10]: 184 ± 3 nM

CCOC(=O)C1CCN(C(=O)N[C@@H](CC(C)C)C(=O)N[C@@H](/C=C/S(=O)(=O)c2ccccc2)COc2ccccc2)CC1 [Compound 3a]
IC50 [1]: > 10000 nM | inhibition at 10 µM [3]: 1.84 ± 2.85% | IC50 [4]: > 10000 nM | inhibition at 10 µM [8]: 51.5 ± 1.38% | IC50 [9]: 16420 ± 90 nM | IC50 [10]: 763 ± 79 nM

O=C(N[C@H](CCc1ccccc1)C(=O)CS(=O)(=O)c1ccccc1)[C@H](Cc1ccccc1)NC(=O)N1CCOCC1 [Compound 4a]
IC50 [1]: > 10000 nM | inhibition at 10 µM [3]: 1.56 ± 4.68% | IC50 [4]: > 10000 nM | inhibition at 10 µM [8]: 52.5 ± 3.61% | IC50 [9]: 8720 ± 540 nM | IC50 [10]: 10700 ± 240 nM

C=CC(=O)[C@@H](C)NC(=O)[C@@H](Cc1ccccc1)NC(=O)OCc1ccccc1 [Compound 5a]
fold decrease in activity against MERS-CoV M^pro compared to SARS-related M^pro enzymes [1]: ~5 fold | IC50 [1]: 830 ± 53.5 nM | inhibition after rapid dilution (reversibility) [2]: reversible inhibition | inhibition at 10 µM [3]: 6.14 ± 2.42% | IC50 [4]: 110 ± 17.3 nM | IC50 [5, 14]: 154 nM and 166 nM | IC50 [5, 15]: 103 nM and 115 nM | fold decrease in IC50 with 15-min pre-incubation vs without [5]: ~4 fold | IC50 [5, 16]: 757 nM and 708 nM | CC50 at 48 h [6]: 49000 ± 3280 nM | CC50 at 48 h [7]: 102000 ± 2060 nM | inhibition at 10 µM [8]: > 95% | % inhibition of SARS-CoV-2 M^pro activity [8]: 100.00 ± 0.00% | IC50 [9]: 160 ± 5.8 nM | IC50 [10]: > 10000 nM | IC50 hCatL [10]: inactive

C=CC(=O)[C@H](C)NC(=O)[C@@H](Cc1ccccc1)NC(=O)OCc1ccccc1 [Compound 5b]
inhibition after rapid dilution (reversibility) [2]: reversible inhibition | fold greater IC50 than nirmatrelvir, SARS-CoV M^pro [4]: 2.4 fold | IC50 [4]: 73 nM and 73.2 nM | IC50 [5, 14]: 134 nM and 122 nM | IC50 [5, 15]: 114 nM and 111 nM | fold decrease in IC50 with 15-min pre-incubation vs without [5]: ~4 fold | IC50 [5, 16]: 639 nM and 707 nM | CC50 at 48 h [6]: 37500 ± 2140 nM | CC50 at 48 h [7]: 85900 ± 1690 nM | inhibition at 10 µM [8]: 100% | fold less potent than nirmatrelvir, SARS-CoV-2 M^pro IC50 [9]: approximately 7 fold | IC50 [9]: 128 ± 6 nM | IC50 [10]: > 10000 nM | IC50 hCatL [10]: inactive

CC(C)C[C@H](NC(=O)[C@H]1O[C@@H]1C(=O)O)C(=O)NCCCCN=C(N)N [Compound E-64]
IC50 [11]: 8 ± 1 nM

NC(=O)c1ncn([C@@H]2O[C@H](CO)[C@@H](O)[C@H]2O)n1 [Ribavirin, ribavirin]
CC50 [12]: > 100000 nM | CC50 [13]: > 100000 nM
